The source made the active and inactive calls.
Assays:
[1] = target: Photoreceptor-specific nuclear receptor (Homo sapiens, UniProt Q9Y5X4); assay type: functional;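 note: potency for compounds that break the NR2E3 corepressor complex and count as activators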
[2] = target: Peroxisome proliferator-activated receptor gamma/Nuclear receptor corepressor 2 (Homo sapiens, UniProt P37231+Q9Y618); assay type: functional
[3] = target: Glyceraldehyde-3-phosphate dehydrogenase (Homo sapiens, UniProt P04406)
[4] = target: Heat shock 70 kDa protein 1A (Homo sapiens, UniProt P0DMV8); test: Hsp70 inhibitors, SAR follow-up, biochemical, fluorescence polarization (AID 1072)
[5] = target: Heat shock cognate 71 kDa protein (Homo sapiens, UniProt P11142); test: In Vitro Hsc70 Dose Response Fluorescence Polarization Assay. [Related pubchem assays: 1072 ]
HEK293 = test: Fluorescence-based counterscreen for potentiators or agonists of NPY-Y2: cell-based high-throughput dose response assay to identify inhibitors of cyclic nucleotide gated ion channel (CNGC) activity. In this assay, the parental HEK293 cell line transfected with a cyclic-nucleotide gated ion channel (CNGC)-based cAMP sensor is used to measure inhibition of isoproterenol-induced CNGC activity by test compound.; assay type: functional; details: Homo sapiens;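 note: stimulus is 1 µM isoproterenol at EC100 plus PDE inhibitor Ro 20-1724 at 25 µM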
[6] = target: T1, Neuropeptide Y receptor type 2 (Homo sapiens, UniProt P49146); test: Fluorescence-based cell-based high-throughput dose response assay for agonists of NPY-Y2. [Related pubchem assays: 1703 (Screening assay (CNGC inhibitors).), 1359 (Screening assay (NPY-Y2 potentiators or agonists).), 1304 (Screening assay (NPY-Y1 potentiators or agonists).), 1710 (Screening assay (NPY-Y2 agonists).), 1791 (Summary AID.)]; assay type: functional
T1 sequence (P49146 whole entry): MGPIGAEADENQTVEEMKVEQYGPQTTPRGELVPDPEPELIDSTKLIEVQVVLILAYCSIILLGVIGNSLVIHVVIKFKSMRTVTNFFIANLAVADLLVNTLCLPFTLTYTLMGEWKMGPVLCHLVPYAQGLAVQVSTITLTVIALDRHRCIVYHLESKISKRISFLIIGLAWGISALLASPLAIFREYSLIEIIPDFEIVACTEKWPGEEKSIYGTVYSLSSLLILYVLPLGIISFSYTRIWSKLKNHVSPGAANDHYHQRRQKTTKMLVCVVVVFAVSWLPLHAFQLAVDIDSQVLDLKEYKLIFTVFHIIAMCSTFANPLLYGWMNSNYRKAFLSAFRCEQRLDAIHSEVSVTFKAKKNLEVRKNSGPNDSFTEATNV

[7] = target: T2, Neuropeptide Y receptor type 1 (Homo sapiens, UniProt P25929); test: Fluorescence-based counterscreen for agonists of NPY-Y2: cell-based high-throughput dose response assay for agonists of NPY-Y1.; assay type: functional
T2 sequence (P25929 whole entry): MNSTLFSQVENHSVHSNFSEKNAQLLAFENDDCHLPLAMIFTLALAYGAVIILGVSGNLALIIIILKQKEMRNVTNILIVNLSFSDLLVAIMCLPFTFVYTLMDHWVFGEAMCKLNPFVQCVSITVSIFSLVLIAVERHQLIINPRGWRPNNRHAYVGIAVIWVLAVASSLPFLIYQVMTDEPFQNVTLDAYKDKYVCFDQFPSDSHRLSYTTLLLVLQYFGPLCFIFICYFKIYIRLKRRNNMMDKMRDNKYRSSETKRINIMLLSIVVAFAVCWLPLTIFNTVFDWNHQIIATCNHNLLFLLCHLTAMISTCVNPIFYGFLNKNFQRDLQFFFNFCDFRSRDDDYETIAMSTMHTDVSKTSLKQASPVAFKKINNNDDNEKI

[8] = enhancers of respiration in Yfh1-depleted yeast, dose response, Friedreich's ataxia, plus single-dose screen (AID 1465); assay type: functional;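 note: yeast depleted of Yfh1p frataxin homolog grown on glycerol needing respiration; WST-1 tetrazolium dye reduction as measure of cellular dehydrogenase metabolic activity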
Protein RecA = target: T3, Protein RecA (Mycobacterium tuberculosis, UniProt P9WHJ3); test: Fluorescence Cell-Free Homogeneous Dose Retest to Identify Inhibitors of RecA-Intein Splicing Activity. [Related pubchem assays (depositor defined):AID2097, AID2223, AID489010, AID492950]; assay type: functional
T3 sequence (P9WHJ3 whole entry): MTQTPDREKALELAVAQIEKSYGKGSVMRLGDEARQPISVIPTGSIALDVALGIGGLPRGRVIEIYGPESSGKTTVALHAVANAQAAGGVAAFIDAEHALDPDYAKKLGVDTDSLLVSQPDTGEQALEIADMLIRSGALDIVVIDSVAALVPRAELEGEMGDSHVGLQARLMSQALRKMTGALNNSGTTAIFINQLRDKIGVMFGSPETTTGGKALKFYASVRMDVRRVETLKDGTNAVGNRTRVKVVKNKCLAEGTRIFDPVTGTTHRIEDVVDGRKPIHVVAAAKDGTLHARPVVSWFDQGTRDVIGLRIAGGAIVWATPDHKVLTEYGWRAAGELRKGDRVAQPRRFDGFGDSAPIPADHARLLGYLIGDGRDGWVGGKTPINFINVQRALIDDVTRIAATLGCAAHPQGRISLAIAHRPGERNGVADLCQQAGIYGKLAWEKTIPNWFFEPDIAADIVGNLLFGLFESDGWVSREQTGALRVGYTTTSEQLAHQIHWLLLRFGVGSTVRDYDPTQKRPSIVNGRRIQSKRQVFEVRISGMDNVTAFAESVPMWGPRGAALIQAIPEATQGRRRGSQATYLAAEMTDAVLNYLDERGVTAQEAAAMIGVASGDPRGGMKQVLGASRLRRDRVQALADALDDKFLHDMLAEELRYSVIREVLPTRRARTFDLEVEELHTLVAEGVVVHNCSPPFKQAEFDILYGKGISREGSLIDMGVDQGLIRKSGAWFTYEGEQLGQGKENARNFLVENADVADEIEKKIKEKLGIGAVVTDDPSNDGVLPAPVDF

[9] = target: T4, Replicative DNA helicase DnaB (Mycobacterium tuberculosis, UniProt P9WMR3); test: DnaB intein splicing inhibitors, dose response, biochemical, cell-free fluorescence (AID 449749); assay type: functional
T4 sequence (P9WMR3 whole entry): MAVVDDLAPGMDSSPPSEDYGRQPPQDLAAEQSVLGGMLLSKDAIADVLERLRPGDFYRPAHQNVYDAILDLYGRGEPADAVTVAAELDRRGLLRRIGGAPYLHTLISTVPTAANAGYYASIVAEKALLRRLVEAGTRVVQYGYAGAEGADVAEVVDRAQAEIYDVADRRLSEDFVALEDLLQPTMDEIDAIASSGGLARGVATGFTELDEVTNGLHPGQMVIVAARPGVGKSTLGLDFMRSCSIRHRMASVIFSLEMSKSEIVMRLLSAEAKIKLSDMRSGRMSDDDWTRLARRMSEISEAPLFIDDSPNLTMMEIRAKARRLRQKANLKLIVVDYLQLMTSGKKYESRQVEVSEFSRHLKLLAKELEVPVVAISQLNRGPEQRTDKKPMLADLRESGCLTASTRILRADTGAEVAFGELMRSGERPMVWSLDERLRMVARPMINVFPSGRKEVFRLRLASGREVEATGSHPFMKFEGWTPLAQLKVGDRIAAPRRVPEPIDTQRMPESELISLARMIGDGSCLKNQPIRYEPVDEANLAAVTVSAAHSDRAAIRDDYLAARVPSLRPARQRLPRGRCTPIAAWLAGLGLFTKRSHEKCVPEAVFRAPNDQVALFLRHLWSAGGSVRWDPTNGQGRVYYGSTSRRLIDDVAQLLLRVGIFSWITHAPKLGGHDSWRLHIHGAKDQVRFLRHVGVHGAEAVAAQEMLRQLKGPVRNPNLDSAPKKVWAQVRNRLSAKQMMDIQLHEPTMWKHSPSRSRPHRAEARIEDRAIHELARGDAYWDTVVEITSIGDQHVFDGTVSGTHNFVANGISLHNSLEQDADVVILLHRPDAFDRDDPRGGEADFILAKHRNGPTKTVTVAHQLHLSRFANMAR

[10] = target: T5, Induced myeloid leukemia cell differentiation protein Mcl-1 (Homo sapiens, UniProt Q07820); assay type: functional
[11] = HIV-1 Env-mediated cell fusion inhibitors, dose response, CCR5-tropic Env (AID 2279); assay type: functional
[12] = target: T5, Induced myeloid leukemia cell differentiation protein Mcl-1; test: MCL1-BIM BH3 interaction inhibitors, dose response, biochemical, fluorescence polarization, BIM-BH3 peptide, 1536-well (AID 2217)
[13] = A Cell Based Secondary Assay To Explore Cytotoxicity of Compounds that Sensitize Mycobacterium Tuberculosis to Beta-Lactam Antibiotics.; assay type: functional
Bcl-2-like protein 1 = Bcl-2-like protein 1 (Homo sapiens, UniProt Q07817); test: BCL-XL inhibitors, dose response, selectivity assay for MCL1 inhibitor project, biochemical, fluorescence polarization, 1536-well (AID 2218)
Sequence of Bcl-2-like protein 1 (Q07817 whole entry): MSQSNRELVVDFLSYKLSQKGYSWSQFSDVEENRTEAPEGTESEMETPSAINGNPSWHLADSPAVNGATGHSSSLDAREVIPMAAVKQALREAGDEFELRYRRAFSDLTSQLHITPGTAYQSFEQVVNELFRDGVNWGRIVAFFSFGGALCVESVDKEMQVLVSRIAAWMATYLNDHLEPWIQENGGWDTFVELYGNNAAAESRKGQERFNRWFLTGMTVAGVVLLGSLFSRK

T5 sequence (Q07820 whole entry, the tested form may be a part): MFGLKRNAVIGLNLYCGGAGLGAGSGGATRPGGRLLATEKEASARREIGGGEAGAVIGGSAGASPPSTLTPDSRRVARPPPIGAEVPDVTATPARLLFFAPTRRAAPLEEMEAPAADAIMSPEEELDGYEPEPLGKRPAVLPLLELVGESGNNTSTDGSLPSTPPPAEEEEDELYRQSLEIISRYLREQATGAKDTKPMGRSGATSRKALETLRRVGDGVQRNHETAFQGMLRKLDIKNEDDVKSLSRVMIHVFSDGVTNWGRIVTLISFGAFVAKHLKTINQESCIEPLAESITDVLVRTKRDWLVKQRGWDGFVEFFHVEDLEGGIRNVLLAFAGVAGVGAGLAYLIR
Sequence of Heat shock cognate 71 kDa protein (P11142 whole entry): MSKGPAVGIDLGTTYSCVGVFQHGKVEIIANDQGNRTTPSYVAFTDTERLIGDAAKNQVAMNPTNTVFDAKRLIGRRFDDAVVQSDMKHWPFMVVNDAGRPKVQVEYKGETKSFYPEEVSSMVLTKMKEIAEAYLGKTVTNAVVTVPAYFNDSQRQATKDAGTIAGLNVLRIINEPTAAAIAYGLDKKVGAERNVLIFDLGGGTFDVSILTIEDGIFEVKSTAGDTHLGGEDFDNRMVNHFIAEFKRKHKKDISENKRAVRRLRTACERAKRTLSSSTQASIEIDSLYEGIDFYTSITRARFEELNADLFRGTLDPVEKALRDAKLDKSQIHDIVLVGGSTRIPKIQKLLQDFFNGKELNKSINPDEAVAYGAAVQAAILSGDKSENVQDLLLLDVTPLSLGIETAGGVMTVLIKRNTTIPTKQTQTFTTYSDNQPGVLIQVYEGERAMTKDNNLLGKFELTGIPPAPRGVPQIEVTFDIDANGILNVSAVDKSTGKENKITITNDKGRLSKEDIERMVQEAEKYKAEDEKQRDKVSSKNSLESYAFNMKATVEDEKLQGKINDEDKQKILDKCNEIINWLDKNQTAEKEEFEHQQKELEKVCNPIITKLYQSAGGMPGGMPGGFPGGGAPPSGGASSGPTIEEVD
Sequence of Heat shock 70 kDa protein 1A (P0DMV8 whole entry): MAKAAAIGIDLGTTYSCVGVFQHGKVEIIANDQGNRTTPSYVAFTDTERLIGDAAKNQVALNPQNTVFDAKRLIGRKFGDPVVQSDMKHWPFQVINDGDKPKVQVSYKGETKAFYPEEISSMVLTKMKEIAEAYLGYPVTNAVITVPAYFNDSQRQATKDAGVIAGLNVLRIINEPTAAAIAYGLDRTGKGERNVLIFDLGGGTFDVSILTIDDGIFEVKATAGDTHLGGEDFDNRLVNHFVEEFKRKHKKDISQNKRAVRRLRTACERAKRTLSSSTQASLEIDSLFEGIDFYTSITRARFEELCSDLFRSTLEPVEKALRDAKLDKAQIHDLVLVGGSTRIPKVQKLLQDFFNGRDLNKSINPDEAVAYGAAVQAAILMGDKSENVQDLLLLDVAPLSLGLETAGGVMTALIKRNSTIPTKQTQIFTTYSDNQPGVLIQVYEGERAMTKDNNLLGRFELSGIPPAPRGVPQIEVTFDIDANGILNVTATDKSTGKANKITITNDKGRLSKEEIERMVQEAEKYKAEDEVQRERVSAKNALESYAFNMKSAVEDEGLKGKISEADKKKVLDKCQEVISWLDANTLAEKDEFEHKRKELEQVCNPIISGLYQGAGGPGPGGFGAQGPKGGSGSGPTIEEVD
Sequence of Glyceraldehyde-3-phosphate dehydrogenase (P04406 whole entry): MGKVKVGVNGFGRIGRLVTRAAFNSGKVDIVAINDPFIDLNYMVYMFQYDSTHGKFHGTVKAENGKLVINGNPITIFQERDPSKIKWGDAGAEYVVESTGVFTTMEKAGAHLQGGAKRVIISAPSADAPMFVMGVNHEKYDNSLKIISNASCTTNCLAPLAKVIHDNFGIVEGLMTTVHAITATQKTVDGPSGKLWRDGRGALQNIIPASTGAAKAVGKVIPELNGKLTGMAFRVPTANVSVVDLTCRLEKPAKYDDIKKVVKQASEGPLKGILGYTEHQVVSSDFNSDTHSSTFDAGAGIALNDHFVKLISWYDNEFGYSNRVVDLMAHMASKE
Sequence of Photoreceptor-specific nuclear receptor (Q9Y5X4 whole entry): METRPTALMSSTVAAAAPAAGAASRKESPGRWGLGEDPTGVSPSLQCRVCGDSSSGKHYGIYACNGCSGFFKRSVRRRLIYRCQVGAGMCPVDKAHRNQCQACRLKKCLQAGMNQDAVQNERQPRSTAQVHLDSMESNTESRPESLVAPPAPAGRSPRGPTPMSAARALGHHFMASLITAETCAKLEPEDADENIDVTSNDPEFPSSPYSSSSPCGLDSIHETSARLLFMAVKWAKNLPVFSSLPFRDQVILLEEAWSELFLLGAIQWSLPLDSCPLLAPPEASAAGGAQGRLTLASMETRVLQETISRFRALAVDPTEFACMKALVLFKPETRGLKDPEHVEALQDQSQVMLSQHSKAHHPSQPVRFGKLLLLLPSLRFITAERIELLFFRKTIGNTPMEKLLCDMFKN

SMILES: Cc1cccc(NC(=O)CSc2ncnc3c2oc2ccccc23)c1
- IC50 [1]: > 39.8 µM (not active)
- IC50 [2]: 3.35 µM (active)

SMILES: Nc1ncnc2c1ncn2[C@@H]1O[C@H](COP(=O)(O)OP(=O)(O)OP(=O)(O)O)[C@@H](O)[C@H]1O [ADENOSINE TRIPHOSPHATE]
- IC50 [3]: > 100 µM (not active)
- IC50 [4]: 3.37 µM (active)
- IC50 [5]: 17.3 µM (active)

SMILES: CCCOc1ccc(/C=N/Nc2ccc(C(=O)O)cc2)c(OCCC)c1
- EC50 (HEK293): 11.4 µM (not active)
- EC50 [6]: 26.3 µM (not active)
- EC50 [7]: 16.5 µM (not active)

SMILES: O=C1C=Cc2ccccc2C1=O [1,2-NAPHTHOQUINONE]
- EC50 [8]: > 100 µM (active)
- EC50 (Protein RecA): 9.13 µM (active)
- AC50 [9]: 5.81 µM (active)

SMILES: O=[N+]([O-])c1cc(Cl)cc(/C=N/NC(=S)Nc2cc(S(=O)(=O)N3CCOCC3)ccc2Cl)c1O
- IC50 [10]: 2.19 µM (active)
- IC50 [11]: 25.1 µM (active)
- IC50 [12]: 49.3 µM (not active)
- CC50 [13]: 25.7 µM (active)
- IC50 (Bcl-2-like protein 1): > 109 µM (not active)

From ChEMBL document CHEMBL1201862, “PubChem BioAssay data set” (2004)
